Measurements as given in patent publication US20220411422A1, “ERBB RECEPTOR INHIBITORS” (Dizal (Jiangsu) Pharmaceutical Co., Ltd., priority 2018, published 2022).
“Also recorded” adds a separate entry of the source.

How the values were obtained:
[1] = system: BT474 SC, BM and LM xenograft models; test: In vivo anti-tumor potency in SC, BM and LM xenograft mouse models
[2] = Clinical study on safety in patients with HER2+ MBC; format: in vivo, human
Description: […] All patients had prior anti-HER2 antibody and chemotherapy treatment. Majority of patients ([…]) also had prior anti-HER2 small molecule treatment.

[3] = Clinical plasma and CSF PK in HER2+ MBC patients; format: in vivo, human
Protocol: The plasma concentration of Compound 6 at the dosage of 50 to 200 mg following single dose or multiple doses were tested. […] In patients with BM, averaged Kpuu,CSF was around 1.82 and 0.78 for Compound 6 and its active metabolite Compound 16, respectively.

[4] = 100 mg (N = 4), CTCAE Grade All
[5] = 200 mg (N = 5), CTCAE Grade All
[6] = HER2+ MBC patients, oral twice daily, doses tested
[7] = Total (N = 14), CTCAE Grade All

COc1cc(O[C@H]2CCN(C)CC2(F)F)c2c(Nc3ccc(Oc4ccn5ncnc5c4)c(C)c3)ncnc2c1 (single isomer, unassigned) [Compound 6]
anti-tumor activity compared to Tucatinib, Neratinib and Pyrotinib ([1]; BM and LM models): superior to Tucatinib, Neratinib and Pyrotinib
anti-tumor activity, monotherapy ([1]; BT474 SC, BM and LM xenograft models, 25-150 mg/kg): potent anti-tumor activity; also recorded: profound tumor regression
anti-tumor activity compared to Tucatinib, Neratinib and Pyrotinib ([1]; SC model): comparable to them
TEAE Anaemia, patients ([2]; 25 mg (N = 1), CTCAE Grade All): 0
TEAE Aspartate aminotransferase increased, patients ([2]; 25 mg (N = 1), CTCAE Grade All): 0
TEAE Bilirubin conjugated increased, patients ([2]; 25 mg (N = 1), CTCAE Grade All): 0
TEAE Blood bilirubin increased, patients ([2]; 25 mg (N = 1), CTCAE Grade All): 1
TEAE Blood bilirubin unconjugated increased, patients ([2]; 25 mg (N = 1), CTCAE Grade All): 1
TEAE Blood creatinine increased, patients ([2]; 25 mg (N = 1), CTCAE Grade All): 0
TEAE Fatigue, patients ([2]; 25 mg (N = 1), CTCAE Grade All): 0
TEAE Haemoglobin decreased, patients ([2]; 25 mg (N = 1), CTCAE Grade All): 0
TEAE Headache, patients ([2]; 25 mg (N = 1), CTCAE Grade All): 0
TEAE Lipase increased, patients ([2]; 25 mg (N = 1), CTCAE Grade All): 0
TEAE Pain, patients ([2]; 25 mg (N = 1), CTCAE Grade All): 0
TEAE Platelet count decreased, patients ([2]; 25 mg (N = 1), CTCAE Grade All): 0
TEAE Proteinuria, patients ([2]; 25 mg (N = 1), CTCAE Grade All): 0
TEAE Vomiting, patients ([2]; 25 mg (N = 1), CTCAE Grade All): 0
TEAE Anaemia, patients ([2]; 25 mg (N = 1), CTCAE Grade ≥3): 0
TEAE Aspartate aminotransferase increased, patients ([2]; 25 mg (N = 1), CTCAE Grade ≥3): 0
TEAE Bilirubin conjugated increased, patients ([2]; 25 mg (N = 1), CTCAE Grade ≥3): 0
TEAE Blood bilirubin increased, patients ([2]; 25 mg (N = 1), CTCAE Grade ≥3): 0
TEAE Blood bilirubin unconjugated increased, patients ([2]; 25 mg (N = 1), CTCAE Grade ≥3): 0
TEAE Blood creatinine increased, patients ([2]; 25 mg (N = 1), CTCAE Grade ≥3): 0
TEAE Fatigue, patients ([2]; 25 mg (N = 1), CTCAE Grade ≥3): 0
TEAE Haemoglobin decreased, patients ([2]; 25 mg (N = 1), CTCAE Grade ≥3): 0
TEAE Headache, patients ([2]; 25 mg (N = 1), CTCAE Grade ≥3): 0
TEAE Lipase increased, patients ([2]; 25 mg (N = 1), CTCAE Grade ≥3): 0
TEAE Pain, patients ([2]; 25 mg (N = 1), CTCAE Grade ≥3): 0
TEAE Platelet count decreased, patients ([2]; 25 mg (N = 1), CTCAE Grade ≥3): 0
TEAE Proteinuria, patients ([2]; 25 mg (N = 1), CTCAE Grade ≥3): 0
TEAE Vomiting, patients ([2]; 25 mg (N = 1), CTCAE Grade ≥3): 0
TEAE Anaemia, patients ([2]; 50 mg (N = 4), CTCAE Grade All): 1
TEAE Aspartate aminotransferase increased, patients ([2]; 50 mg (N = 4), CTCAE Grade All): 1
TEAE Bilirubin conjugated increased, patients ([2]; 50 mg (N = 4), CTCAE Grade All): 0
TEAE Blood bilirubin increased, patients ([2]; 50 mg (N = 4), CTCAE Grade All): 0
TEAE Blood bilirubin unconjugated increased, patients ([2]; 50 mg (N = 4), CTCAE Grade All): 0
TEAE Blood creatinine increased, patients ([2]; 50 mg (N = 4), CTCAE Grade All): 1
TEAE Fatigue, patients ([2]; 50 mg (N = 4), CTCAE Grade All): 0
TEAE Haemoglobin decreased, patients ([2]; 50 mg (N = 4), CTCAE Grade All): 1
TEAE Headache, patients ([2]; 50 mg (N = 4), CTCAE Grade All): 1
TEAE Lipase increased, patients ([2]; 50 mg (N = 4), CTCAE Grade All): 2
TEAE Pain, patients ([2]; 50 mg (N = 4), CTCAE Grade All): 1
TEAE Platelet count decreased, patients ([2]; 50 mg (N = 4), CTCAE Grade All): 1
TEAE Proteinuria, patients ([2]; 50 mg (N = 4), CTCAE Grade All): 1
TEAE Vomiting, patients ([2]; 50 mg (N = 4), CTCAE Grade All): 0
TEAE Anaemia, patients ([2]; 50 mg (N = 4), CTCAE Grade ≥3): 0
TEAE Aspartate aminotransferase increased, patients ([2]; 50 mg (N = 4), CTCAE Grade ≥3): 0
TEAE Bilirubin conjugated increased, patients ([2]; 50 mg (N = 4), CTCAE Grade ≥3): 0
TEAE Blood bilirubin increased, patients ([2]; 50 mg (N = 4), CTCAE Grade ≥3): 0
TEAE Blood bilirubin unconjugated increased, patients ([2]; 50 mg (N = 4), CTCAE Grade ≥3): 0
TEAE Blood creatinine increased, patients ([2]; 50 mg (N = 4), CTCAE Grade ≥3): 0
TEAE Fatigue, patients ([2]; 50 mg (N = 4), CTCAE Grade ≥3): 0
TEAE Haemoglobin decreased, patients ([2]; 50 mg (N = 4), CTCAE Grade ≥3): 0
TEAE Headache, patients ([2]; 50 mg (N = 4), CTCAE Grade ≥3): 0
TEAE Lipase increased, patients ([2]; 50 mg (N = 4), CTCAE Grade ≥3): 0
TEAE Pain, patients ([2]; 50 mg (N = 4), CTCAE Grade ≥3): 0
TEAE Platelet count decreased, patients ([2]; 50 mg (N = 4), CTCAE Grade ≥3): 0
TEAE Proteinuria, patients ([2]; 50 mg (N = 4), CTCAE Grade ≥3): 0
TEAE Vomiting, patients ([2]; 50 mg (N = 4), CTCAE Grade ≥3): 0
TEAE Anaemia, patients [2, 4]: 2
TEAE Aspartate aminotransferase increased, patients [2, 4]: 0
TEAE Bilirubin conjugated increased, patients [2, 4]: 0
TEAE Blood bilirubin increased, patients [2, 4]: 0
TEAE Blood bilirubin unconjugated increased, patients [2, 4]: 0
TEAE Blood creatinine increased, patients [2, 4]: 0
TEAE Fatigue, patients [2, 4]: 1
TEAE Haemoglobin decreased, patients [2, 4]: 0
TEAE Headache, patients [2, 4]: 2
TEAE Lipase increased, patients [2, 4]: 0
TEAE Pain, patients [2, 4]: 0
TEAE Platelet count decreased, patients [2, 4]: 1
TEAE Proteinuria, patients [2, 4]: 0
TEAE Vomiting, patients [2, 4]: 1
TEAE Anaemia, patients ([2]; 100 mg (N = 4), CTCAE Grade ≥3): 0
TEAE Aspartate aminotransferase increased, patients ([2]; 100 mg (N = 4), CTCAE Grade ≥3): 0
TEAE Bilirubin conjugated increased, patients ([2]; 100 mg (N = 4), CTCAE Grade ≥3): 0
TEAE Blood bilirubin increased, patients ([2]; 100 mg (N = 4), CTCAE Grade ≥3): 0
TEAE Blood bilirubin unconjugated increased, patients ([2]; 100 mg (N = 4), CTCAE Grade ≥3): 0
TEAE Blood creatinine increased, patients ([2]; 100 mg (N = 4), CTCAE Grade ≥3): 0
TEAE Fatigue, patients ([2]; 100 mg (N = 4), CTCAE Grade ≥3): 0
TEAE Haemoglobin decreased, patients ([2]; 100 mg (N = 4), CTCAE Grade ≥3): 0
TEAE Headache, patients ([2]; 100 mg (N = 4), CTCAE Grade ≥3): 0
TEAE Lipase increased, patients ([2]; 100 mg (N = 4), CTCAE Grade ≥3): 0
TEAE Pain, patients ([2]; 100 mg (N = 4), CTCAE Grade ≥3): 0
TEAE Platelet count decreased, patients ([2]; 100 mg (N = 4), CTCAE Grade ≥3): 0
TEAE Proteinuria, patients ([2]; 100 mg (N = 4), CTCAE Grade ≥3): 0
TEAE Vomiting, patients ([2]; 100 mg (N = 4), CTCAE Grade ≥3): 0
TEAE Anaemia, patients [2, 5]: 1
TEAE Aspartate aminotransferase increased, patients [2, 5]: 1
TEAE Bilirubin conjugated increased, patients [2, 5]: 2
TEAE Blood bilirubin increased, patients [2, 5]: 2
TEAE Blood bilirubin unconjugated increased, patients [2, 5]: 1
TEAE Blood creatinine increased, patients [2, 5]: 1
TEAE Fatigue, patients [2, 5]: 1
TEAE Haemoglobin decreased, patients [2, 5]: 3
TEAE Headache, patients [2, 5]: 1
TEAE Lipase increased, patients [2, 5]: 1
TEAE Pain, patients [2, 5]: 1
TEAE Platelet count decreased, patients [2, 5]: 1
TEAE Proteinuria, patients [2, 5]: 2
TEAE Vomiting, patients [2, 5]: 2
TEAE Anaemia, patients ([2]; 200 mg (N = 5), CTCAE Grade ≥3): 0
TEAE Aspartate aminotransferase increased, patients ([2]; 200 mg (N = 5), CTCAE Grade ≥3): 0
TEAE Bilirubin conjugated increased, patients ([2]; 200 mg (N = 5), CTCAE Grade ≥3): 1
TEAE Blood bilirubin increased, patients ([2]; 200 mg (N = 5), CTCAE Grade ≥3): 0
TEAE Blood bilirubin unconjugated increased, patients ([2]; 200 mg (N = 5), CTCAE Grade ≥3): 0
TEAE Blood creatinine increased, patients ([2]; 200 mg (N = 5), CTCAE Grade ≥3): 0
TEAE Fatigue, patients ([2]; 200 mg (N = 5), CTCAE Grade ≥3): 0
TEAE Haemoglobin decreased, patients ([2]; 200 mg (N = 5), CTCAE Grade ≥3): 0
TEAE Headache, patients ([2]; 200 mg (N = 5), CTCAE Grade ≥3): 0
TEAE Lipase increased, patients ([2]; 200 mg (N = 5), CTCAE Grade ≥3): 0
TEAE Pain, patients ([2]; 200 mg (N = 5), CTCAE Grade ≥3): 0
TEAE Platelet count decreased, patients ([2]; 200 mg (N = 5), CTCAE Grade ≥3): 0
TEAE Proteinuria, patients ([2]; 200 mg (N = 5), CTCAE Grade ≥3): 0
TEAE Vomiting, patients ([2]; 200 mg (N = 5), CTCAE Grade ≥3): 0
dose limiting toxicities [2, 6]: no dose limiting toxicities observed
tolerability [2, 6]: well tolerated
TEAE Anaemia, patients [2, 7]: 4
TEAE Aspartate aminotransferase increased, patients [2, 7]: 2
TEAE Bilirubin conjugated increased, patients [2, 7]: 2
TEAE Blood bilirubin increased, patients [2, 7]: 3
TEAE Blood bilirubin unconjugated increased, patients [2, 7]: 2
TEAE Blood creatinine increased, patients [2, 7]: 2
TEAE Fatigue, patients [2, 7]: 2
TEAE Haemoglobin decreased, patients [2, 7]: 4
TEAE Headache, patients [2, 7]: 4
TEAE Lipase increased, patients [2, 7]: 3
TEAE Pain, patients [2, 7]: 2
TEAE Platelet count decreased, patients [2, 7]: 3
TEAE Proteinuria, patients [2, 7]: 3
TEAE Vomiting, patients [2, 7]: 3
TEAE Anaemia, patients ([2]; Total (N = 14), CTCAE Grade ≥3): 0
TEAE Aspartate aminotransferase increased, patients ([2]; Total (N = 14), CTCAE Grade ≥3): 0
TEAE Bilirubin conjugated increased, patients ([2]; Total (N = 14), CTCAE Grade ≥3): 1
TEAE Blood bilirubin increased, patients ([2]; Total (N = 14), CTCAE Grade ≥3): 0
TEAE Blood bilirubin unconjugated increased, patients ([2]; Total (N = 14), CTCAE Grade ≥3): 0
TEAE Blood creatinine increased, patients ([2]; Total (N = 14), CTCAE Grade ≥3): 0
TEAE Fatigue, patients ([2]; Total (N = 14), CTCAE Grade ≥3): 0
TEAE Haemoglobin decreased, patients ([2]; Total (N = 14), CTCAE Grade ≥3): 0
TEAE Headache, patients ([2]; Total (N = 14), CTCAE Grade ≥3): 0
TEAE Lipase increased, patients ([2]; Total (N = 14), CTCAE Grade ≥3): 0
TEAE Pain, patients ([2]; Total (N = 14), CTCAE Grade ≥3): 0
TEAE Platelet count decreased, patients ([2]; Total (N = 14), CTCAE Grade ≥3): 0
TEAE Proteinuria, patients ([2]; Total (N = 14), CTCAE Grade ≥3): 0
TEAE Vomiting, patients ([2]; Total (N = 14), CTCAE Grade ≥3): 0
Kp uu ([3]; human, CSF, oral, patients with BM, read-out: averaged Kpuu,CSF): ~1.82
half-life ([3]; human, plasma, patients, single oral dose, read-out: terminal half-life (converted)): ~18 h
accumulation ([3]; patients, 15-day repeat dosing): Around 2 fold
drug exposure versus dose ([3]; patients, 50 to 200 mg): increased in a dose proportional manner
free trough concentration versus pHER2 IC50 of BT474cl cells ([3]; patients, doses ≥100 mg bid): above pHER2 IC50 of BT474cl cells
